Data: patent US5814627A, “3, 5-disubstituted and 3, 4, 5-trisubstituted 2-isoxazolines and isoxazoles, process for their preparation and their use as pharmaceuticals” (Hoechst Aktienegesellschaft, priority 1994, dated 1998)

What was measured:
[1] = test system: polymorphonuclear leucocytes (PMNL); assay: Test 1: Release of proteolytic activity from human PMNL; assay type: cell-based; settings: Homo sapiens, PMNL, read-out: Test 1 residual activity (release of proteolytic activity), percent of control
In short: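 Human peripheral-blood PMNL (5·10^6 cells/ml in PBS with 7.5 mM glucose) preincubated 20 min at 37° C. with compound, then primed with cytochalasin B (5 μg/ml) and TNF (30 ng/ml), and stimulated with fMLP (10 nmol/l) for 60 min. Released protease in supernatant read with methoxysuccinyl-nitroanilide substrate at 405 nm over 0-60 min, pH 7.5.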

[2] = test system: TNFα release from mononuclear cells; assay: Test 4: cytokine release from LPS-stimulated mononuclear cells, TNFα; assay type: cell-based; settings: Homo sapiens, read-out: Test 4 residual activity (TNFα release), percent of control
Description: (§1) Test 4. Stimulation of the cytokine release
(§2) Isolation of mononuclear cells from human blood
(§3) 10 ml of human blood, stabilized with 1 ml of 3.8% sodium citrate solution, were diluted with 10 ml of PM16 (Serva, Heidelberg) and underlaid with 15 ml of Lymphoprep (Dr. Molter GmbH, Heidelberg). The samples were centrifuged, at room temperature for 40 minutes, at 400×g (1600 rpm, Minifuge 2, Heraeus, Osterode). The mononuclear cells are visible as a white ring at the Lymphoprep/plasma interface. This ring was carefully removed with a syringe, diluted with an equal volume of PM16, and centrifuged for 10 minutes at 400×g. The sediment was washed with approximately 10 ml of RPMI1640 (+300 mg/l L-glutamine, Gibco, Eggenstein) (Wallis, 1986). After the cells had been resuspended in approximately 1 ml of RPMI1640 (+300 mg/l L-glutamine+25 mM HEPES+100 μg/ml streptomycin+100 μg/ml penicillin), the cell density was determined using a Coulter Counter JT (Coulter Diagnostics) and adjusted to 5*10^6 /ml. Typically, the cells are composed of 90% lymphocytes and 10% monocytes.
(§4) 230 μl of mononuclear cells were incubated, at 37° C.; 5% CO2 for 20-22 hours (5 hours in the case of IL-6), with 10 μl of test substance (10 μM in DMSO/water, 1/10) and 10 μl of lipopolysaccharide (LPS; 500 μg dissolved in 1 ml of DMSO and diluted 1/10 with water prior to beginning the test; from Salmonella abortus equi, Sigma, Deisenhofen). The samples were cooled down to 0° C. in an ice bath and centrifuged in a Sigma centrifuge (2 minutes; 2000 rpm). Aliquots of the supernatant are measured with an ELISA (Biermann, Bad Nauheim). The abbreviation IL stands for interleukin and TNF for tumor necrosis factor alpha.
(§5) The values in the table show the concentration of the test substance which was employed in μM and, besides this, the residual activity measured in percent based on the control, which was set to be 100%. The interleukin is additionally indicated in test 4.

[3] = test system: IL-1α release from mononuclear cells; assay: Test 4: cytokine release from LPS-stimulated mononuclear cells, IL-1α; assay type: cell-based; settings: Homo sapiens, 10 μM, read-out: Test 4 residual activity (IL-1α release), percent of control
Description: as §1, §2, §3
as §4, with “([…])” for “(10 μM in DMSO/water, 1/10)”
as §5

[4] = test system: PAF-induced asthma attack; assay: Test 7: antiasthmatic effect, PAF-induced asthma attack; assay type: in vivo; settings: Cavia porcellus; i.d., 15 minutes before PAF; guinea pig
In short: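 Anesthetized guinea pigs given PAF through a jugular vein cannula; test compounds dosed i.v. through the same cannula 5 min before PAF, or intraduodenally via surgical cannula 15 min before. Bronchial width recorded by overflow pneumonogram before and after dosing; ED50 in mg/kg i.d. against the PAF-induced attack.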

[5] = test system: IL-6 release from mononuclear cells; assay: Test 4: cytokine release from LPS-stimulated mononuclear cells, IL-6; assay type: cell-based; settings: Homo sapiens, 5 hours incubation, read-out: Test 4 residual activity (IL-6 release), percent of control
Description: as §1, §2
as §3, with “The sediment was washed with approximately 10 ml of RPMI1640 (+300 mg/l L-glutamine, Gibco, Eggenstein) (Wallis, 1986).” left out, “Typically, the cells are composed of 90% lymphocytes and 10% monocytes.” left out
as §4, with “The samples were cooled down to 0° C. in an ice bath and centrifuged in a Sigma centrifuge (2 minutes; 2000 rpm).” left out, “The abbreviation IL stands for interleukin and TNF for tumor necrosis factor alpha.” left out

[6] = test system: IL-1 release from mononuclear cells; assay: Test 4: cytokine release from LPS-stimulated mononuclear cells, IL-1; assay type: cell-based; settings: Homo sapiens; IL-1; 10 μM; read-out: Test 4 residual activity (IL-1 release), percent of control
Description: as §1, §2, §3, §4, §5

[7] = test system: IL-1β release from mononuclear cells; assay: Test 4: cytokine release from LPS-stimulated mononuclear cells, IL-1β; assay type: cell-based; settings: Homo sapiens, 10 μM, read-out: Test 4 residual activity (IL-1β release), percent of control
Description: as §1, §2, §3, §4, §5

Row | Structure (SMILES) | activity at 100 µM [1] [%] | activity at 10 µM [2] [%] | activity at 10 µM [3] [%] | activity at 1 µM [1] [%] | activity at 10 µM [1] [%] | ED50 [4] [mg/kg] | activity at 1 µM ([5]; 1 μM) [%] | activity at 10 µM ([5]; 10 μM) [%] | activity at 10 µM [6] [%] | activity at 10 µM [7] [%]
1 | CCOC(=O)CNC(=O)OCCCc1cc(-c2cc(C(C)(C)C)c(O)c(C(C)(C)C)c2)no1 [Example 41, N-(3-(4-Hydroxy-3,5-di-tert-butylphenyl)isoxazol-5-ylpropoxycarbonyl)glycine ethyl ester] | 78 | 89 | – | – | – | – | – | – | – | –
2 | CC(O)c1cc(-c2cc(C(C)(C)C)c(O)c(C(C)(C)C)c2)no1 (centres unmarked) [Example 28] | – | – | 93 | 97 | 59 | – | – | – | – | –
3 | CC(C)(C)c1cc(-c2cc(CNS(=O)(=O)C(F)(F)F)on2)cc(C(C)(C)C)c1O [Example 49, N-(3-(4-Hydroxy-3,5-di-tert-butylphenyl)isoxazol-5-ylmethyl)trifluoromethanesulfonamide] | 19 | 91 | – | 88 | 23 | ~50 | 91 | – | – | –
4 | CC(C)(C)c1cc(C2=NOC(c3ccccn3)C2)cc(C(C)(C)C)c1O (centres unmarked) [Example 9] | 64 | 63 | – | – | – | ~50 | – | 93 | 73 | –
5 | CC(C)(C)c1cc(C2CC(CCC(=O)O)=NO2)cc(C(C)(C)C)c1O (centres unmarked) [Example 63, 5-(4-Hydroxy-3,5-di-tert-butylphenyl)-2-isoxazolin-3-ylpropionic acid] | 66 | – | 75 | – | 88 | – | – | – | – | 77
